Test results: the CheMixHub ionic liquid set

Assay: xn = mol fraction of the nth substance listed

CCCCCCCCn1cc[n+](C)c1C.F[P-](F)(F)(F)(F)F + CCCCCCCC[n+]1ccn(C)c1.F[P-](F)(F)(F)(F)F
100 kPa, x2 = 0.5
Conditions	viscosity [mPa·s]
333.15 K	90.3
343.15 K	60.9
353.15 K	44.5

CC[n+]1ccn(CCOC)c1.O=S(=O)([O-])C(F)(F)F + CCCO
viscosity [mPa·s], 101 kPa
Conditions	x1 = 0.0987	x1 = 0.1999	x1 = 0.2982	x1 = 0.3994	x1 = 0.499	x1 = 0.599	x1 = 0.698	x1 = 0.801	x1 = 0.899	x1 = 1
288.15 K	4.257	6.11	10	14.17	23.2	31.9	45.2	63.3	88.6	121
293.15 K	3.751	4.78	8.54	12.17	19.23	26.22	36.7	50.5	69.1	92.5
298.15 K	3.282	4.18	7.36	10.61	16.22	21.94	30.16	41	55.3	72.5
303.15 K	2.914	3.72	6.41	9.35	13.09	18.61	25.17	33.69	44.8	57.9
308.15 K	2.594	3.59	5.63	8.33	11.23	15.98	21.29	28.1	36.86	47.3
313.15 K	2.321	3.205	4.98	7.49	10.09	13.81	18.34	23.8	30.74	39
318.15 K	2.086	3.097	4.43	6.8	8.6	12	15.84	20.29	25.97	32.59

CCCCCCCC(=O)[O-].c1c[nH+]c[nH]1 + CCCCCCCCO
101.3 kPa
Conditions	viscosity [mPa·s]
293.15 K, x2 = 0.4	39.42
293.15 K, x2 = 0.6005	24
298.15 K, x2 = 0.4	33.3
298.15 K, x2 = 0.5007	25.9
298.15 K, x2 = 0.6005	20.3
298.15 K, x2 = 0.8997	9.1
303.15 K, x2 = 0.6005	17.2
308.15 K, x2 = 0.1011	40.69
308.15 K, x2 = 0.6999	11.72
313.15 K, x2 = 0.6005	12.3
318.15 K, x2 = 0.1011	27.68
318.15 K, x2 = 0.799	6.7
318.15 K, x2 = 0.8997	5.38
323.15 K, x2 = 0.1011	22.9
323.15 K, x2 = 0.2991	17.1
323.15 K, x2 = 0.8997	4.82

CC[n+]1ccn(C)c1.COS(=O)(=O)[O-] + CS(C)=O
viscosity [mPa·s], 100 kPa
Conditions	298.15 K	303.15 K	308.15 K	313.15 K
x1 = 0.0164	4.16	4.01	3.89	3.67
x1 = 0.0398	7.35	6.81	6.27	5.93
x1 = 0.0602	9.97	9.2	8.55	8.08
x1 = 0.0941	14.18	12.83	12.06	11.28
x1 = 0.1236	17.62	15.85	14.5	13.71
x1 = 0.1519	20.91	18.59	16.92	16.1
x1 = 0.2143	27.4	24.2	21.94	20.73
x1 = 0.2927	34.95	30.43	27.28	25.55
x1 = 0.3737	41.96	36.24	32.09	29.71
x1 = 0.4429	47.4	40.66	35.66	32.71
x1 = 0.5298	53.6	45.69	39.54	35.84
x1 = 0.6072	58.8	49.5	42.55	38.23
x1 = 0.6927	64.3	53.7	45.77	40.24
x1 = 0.7486	67.7	56.3	47.7	41.57
x1 = 0.8263	72.7	60	50.3	43.32
x1 = 0.8944	77	63.2	52.7	44.81
x1 = 0.9396	80.1	65.5	54.3	45.96
x1 = 0.9755	82.5	67.4	55.7	46.87
x1 = 1	84.3	68.7	56.7	47.6

CCCCCC[n+]1ccn(C)c1.O=S(=O)([N-]S(=O)(=O)C(F)(F)F)C(F)(F)F + CC(C)O
viscosity [mPa·s], 100 kPa
Conditions	x2 = 0	x2 = 0.0845	x2 = 0.2111	x2 = 0.3269	x2 = 0.4529	x2 = 0.5435	x2 = 0.637	x2 = 0.7321	x2 = 0.8285	x2 = 0.9173
293.15 K	85.2	73.5	57	42.3	29.9	22.4	16.2	12	8.01	4.5
298.15 K	65.9	56.6	44.5	34.1	24.2	18.8	13.6	9.86	6.52	3.73
303.15 K	51.9	45	36.5	28.6	20.2	15.6	11.4	8.26	5.51	3.24
308.15 K	41.4	36	30.5	24.1	17.2	13.2	9.62	7.11	4.67	2.82
313.15 K	33.8	30.5	25.6	20.6	14.9	11.3	8.31	6.06	3.98	2.41

CCCC[n+]1ccn(C)c1.N#C[C-](C#N)C#N + O
viscosity [mPa·s], 101 kPa
Conditions	278.15 K	288.15 K	298.15 K	308.15 K	318.15 K	328.15 K	333.15 K	338.15 K	348.15 K	358.15 K
x2 = 0	76.6	43.55	27.32	18.45	13.21	9.91	–	7.71	6.18	5.08
x2 = 0.01382	–	–	–	–	–	9.9	8.72	–	6.245	–
x2 = 0.0458	67.8	39.3	25.05	17.19	12.48	9.46	–	7.43	6.01	4.966
x2 = 0.1008	–	31.74	20.8	14.54	10.68	8.18	–	6.47	5.261	4.375
x2 = 0.175	47.79	28.85	19.03	13.37	9.89	7.62	–	6.06	4.944	4.125
x2 = 0.2116	44.3	26.98	17.9	12.67	9.43	7.3	–	5.83	4.783	4.001
x2 = 0.2885	37.68	23.28	15.62	11.15	8.36	6.51	–	5.232	4.309	3.618
x2 = 0.4273	28.9	18.24	12.43	8.99	6.81	5.351	–	4.329	3.586	3.028
x2 = 0.5034	25.05	15.99	11	8.01	6.106	4.82	–	3.916	3.273	2.748
x2 = 0.5607	21.78	14.03	9.71	7.1	5.428	4.295	–	3.496	2.912	2.472

CCCCCCCC[P+](CC)(CC)CC.O=[N+]([O-])c1c[n-]cn1 + COCCOCCOCCOCCOC
viscosity [mPa·s], 100 kPa
Conditions	x1 = 0.599	x1 = 0.699	x1 = 0.9	x1 = 1
278.15 K	125	210	–	1270
288.15 K	–	114	–	569
298.15 K	–	–	180	–

CCCCCC[n+]1ccn(C)c1.[Br-] + OC[C@H]1O[C@@](CO)(O[C@H]2O[C@H](CO)[C@@H](O)[C@H](O)[C@H]2O)[C@@H](O)[C@@H]1O + O
viscosity [mPa·s], 100 kPa
Conditions	288.15 K	298.15 K	308.15 K	318.15 K
x2 = 0.0009263, x1 = 0.001797	1.271	0.986	0.785	0.651
x2 = 0.000945, x1 = 0.003588	1.33	1.022	0.827	0.683
x2 = 0.001856, x1 = 0.001795	1.334	1.034	0.826	0.681
x2 = 0.001901, x1 = 0.003584	1.403	1.07	0.87	0.711
x2 = 0.001946, x1 = 0.005366	1.495	1.142	0.891	0.74
x2 = 0.002732, x1 = 0.001794	1.394	1.074	0.859	0.711
x2 = 0.002803, x1 = 0.003581	1.468	1.123	0.904	0.74
x2 = 0.002858, x1 = 0.005362	1.568	1.191	0.949	0.78
x2 = 0.003653, x1 = 0.001792	1.453	1.124	0.897	0.735
x2 = 0.003711, x1 = 0.003578	1.538	1.173	0.941	0.775
x2 = 0.003775, x1 = 0.005357	1.637	1.245	0.99	0.807
x2 = 0.004453, x1 = 0.003575	1.596	1.222	0.975	0.805
x2 = 0.004552, x1 = 0.005352	1.699	1.293	1.023	0.834
x2 = 0.005421, x1 = 0.001789	1.601	1.229	0.975	0.793
x2 = 0.005541, x1 = 0.003571	1.672	1.287	1.018	0.835
x2 = 0.005596, x1 = 0.005347	1.794	1.365	1.078	0.875
x2 = 0.006166, x1 = 0.001788	1.649	1.272	1.01	0.82
x2 = 0.006277, x1 = 0.003569	1.745	1.342	1.061	0.868
x2 = 0.006372, x1 = 0.005343	1.862	1.416	1.114	0.906
x2 = 0.007317, x1 = 0.001786	1.761	1.347	1.059	0.863
x2 = 0.007401, x1 = 0.005337	1.984	1.498	1.184	0.952
x2 = 0.007611, x1 = 0.003564	1.874	1.438	1.13	0.917
x2 = 0.00788, x1 = 0.001785	1.826	1.395	1.088	0.894
x2 = 0.008047, x1 = 0.003562	1.908	1.463	1.152	0.928
x2 = 0.008846, x1 = 0.005329	2.121	1.595	1.25	1.009

CCC[N+]1(C)CCCC1.N#C[N-]C#N + CCC[N+]1(C)CCCC1.O=S(=O)([N-]S(=O)(=O)C(F)(F)F)C(F)(F)F
333.15 K, 101 kPa
Conditions	electrical conductivity [S/m]	viscosity [mPa·s]
x1 = 0.25	1.38	16.8
x1 = 0.75	2.72	13.2

CCCCCC[n+]1ccn(C)c1.[Br-] + O
viscosity [mPa·s]
Conditions	288.15 K	298.15 K	308.15 K	318.15 K
100 kPa, x1 = 0.0001802	1.159	0.926	0.762	0.645
100 kPa, x1 = 0.0007203	1.165	0.934	0.77	0.643
100 kPa, x1 = 0.00126	1.171	0.942	0.776	0.66
100 kPa, x2 = 0.9008	–	6.89	–	–
101 kPa, x1 = 1.982e-05	1.136	–	0.722	–
101 kPa, x1 = 3.243e-05	1.138	0.891	0.723	–
101 kPa, x1 = 6.667e-05	1.142	0.896	0.726	–
101 kPa, x1 = 0.001844	–	0.948	–	–
101 kPa, x1 = 0.003654	–	1.005	–	–
101 kPa, x1 = 0.005425	–	1.053	–	–
101 kPa, x1 = 0.007153	–	1.101	–	–

CC(=O)[O-].C[NH+]1CCOCC1 + CC(=O)[O-].Cn1cc[nH+]c1
Conditions	electrical conductivity [S/m]
298.15 K, 100 kPa, x2 = 0.71	0.274

CC[n+]1ccn(C)c1.COS(=O)(=O)[O-] + CN1CCCC1=O
101 kPa
Conditions	viscosity [mPa·s]
298.15 K, x2 = 0.8502	4.99
303.15 K, x2 = 0.3825	28
303.15 K, x2 = 0.5291	17.6
303.15 K, x2 = 0.9298	2.91
308.15 K, x1 = 0.0115	1.52
308.15 K, x2 = 0.6518	9.5
308.15 K, x2 = 0.718	6.8
313.15 K, x2 = 0.0861	38.1
